Laboratory results as given in the supplement of paper PMC10627819.

Key:
B. subtilis 168 [1] = test: fitness (endpoint OD595 vs no drug) (fraction); higher = more growth
Procedure, shortened: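 With the first reading as background, OD595 was measured every 30 min for 14 h in 384-well plates kept at 37 °C and inoculated at OD595 0.01. TSB, LB Lennox or CY was the medium. Fitness is the optical density at the transition into stationary phase divided by the robust mean of no-drug control wells, with a cap of 1.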

S. pneumoniae D39V = test: Bliss interaction score (quartile over a dose matrix) (fitness difference); higher = more antagonism (negative = synergy)
Procedure, shortened: (§1)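 The Bliss score is observed minus expected fitness, where expected fitness is the product of the single-drug fitness values inferred from the combination data. Fitness is the OD595 at the onset of stationary phase over the plate's robust no-drug mean, capped at 1. Scores are summarised by quartiles over technical, biological and donor/recipient replicates.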

B. subtilis 168 [2] = test: as above
Procedure, shortened: as §1

S. aureus DSM 20231 = test: as above
Procedure, shortened: as §1

S. aureus Newman = test: as above
Procedure, shortened: as §1
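Throughout, for Bliss interaction score (quartile over a dose matrix): first quartile when negative (synergy) and third quartile when positive (antagonism).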
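Throughout, for fitness (endpoint OD595 vs no drug): OD595 on entry to stationary phase over no-drug wells; at most 1.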

COc1cccc2c1C(=O)c1c(O)c3c(c(O)c1C2=O)C[C@@](O)(C(=O)CO)C[C@@H]3O[C@H]1C[C@H](N)[C@H](O)[C@H](C)O1 [Doxorubicin] + CO[C@@H]1[C@@H](OC(N)=O)[C@@H](O)[C@H](Oc2ccc3c(O)c(NC(=O)c4ccc(O)c(CC=C(C)C)c4)c(=O)oc3c2C)OC1(C)C [Novobiocin]
fitness, B. subtilis 168 [1]
Settings | first compound 0.625 µg/mL | first compound 1.25 µg/mL | first compound 2.5 µg/mL
partner 0.0125 µg/mL | 0.984 | 0.931 | 0.787
partner 0.025 µg/mL | 0.971 | 0.893 | 0.727
partner 0.05 µg/mL | 0.993 | 0.938 | 0.631

fitness, B. subtilis 168 [1], one replicate
Settings | partner 0.1 µg/mL | partner 0.125 µg/mL | partner 0.2 µg/mL | partner 0.25 µg/mL | partner 0.5 µg/mL
first compound 0.625 µg/mL | 0.972 | 0.912 | ≥ 1 | 0.793 | 0.516
first compound 1.25 µg/mL | 0.99 | 0.901 | 0.971 | 0.785 | 0.305
first compound 2.5 µg/mL | 0.571 | 0.834 | 0.588 | 0.386 | 0.0091

Settings | Bliss interaction score
B. subtilis 168 [2] | 0.0565
S. aureus DSM 20231 | -0.0601
S. aureus Newman | -0.082
S. pneumoniae D39V | -0.106

C[C@H]1c2cccc(O)c2C(=O)C2=C(O)[C@]3(O)C(=O)C(C(N)=O)=C(O)[C@@H](N(C)C)[C@@H]3[C@@H](O)[C@@H]21 [Doxycycline] + CO[C@@H]1[C@@H](OC(N)=O)[C@@H](O)[C@H](Oc2ccc3c(O)c(NC(=O)c4ccc(O)c(CC=C(C)C)c4)c(=O)oc3c2C)OC1(C)C [Novobiocin]
fitness, B. subtilis 168 [1]
Settings | first compound 0.02 µg/mL | first compound 0.04 µg/mL | first compound 0.08 µg/mL
partner 0.0125 µg/mL | 0.885 | 0.808 | 0.466
partner 0.025 µg/mL | 0.875 | 0.775 | 0.405
partner 0.05 µg/mL | 0.978 | 0.775 | –

fitness, B. subtilis 168 [1], one replicate
Settings | partner 0.1 µg/mL | partner 0.125 µg/mL | partner 0.2 µg/mL | partner 0.25 µg/mL | partner 0.5 µg/mL
first compound 0.02 µg/mL | ≥ 1 | 0.861 | 0.979 | 0.963 | 0.623
first compound 0.04 µg/mL | 0.874 | 0.787 | 0.895 | 0.712 | 0.547
first compound 0.08 µg/mL | 0.675 | 0.341 | 0.71 | 0.103 | 0.0433

Settings | Bliss interaction score
B. subtilis 168 [2] | 0.0575
S. aureus DSM 20231 | 0.0829
S. aureus Newman | 0.0369
S. pneumoniae D39V | 0.0928

C[C@H]1c2cccc(O)c2C(=O)C2=C(O)[C@]3(O)C(=O)C(C(N)=O)=C(O)[C@@H](N(C)C)[C@@H]3[C@@H](O)[C@@H]21 [Doxycycline] + COc1cc(Cc2cnc(N)nc2N)cc(OC)c1OC [Trimethoprim]
fitness, B. subtilis 168 [1], one replicate
Settings | partner 0.1 µg/mL | partner 0.2 µg/mL | partner 0.4 µg/mL | partner 1 µg/mL | partner 2 µg/mL
first compound 0.02 µg/mL | 0.84 | 0.754 | 0.616 | 0.346 | 0.259
first compound 0.04 µg/mL | 0.683 | 0.51 | 0.391 | 0.234 | 0.146
first compound 0.08 µg/mL | 0.362 | 0.222 | 0.156 | 0.0631 | 0.0715

fitness, B. subtilis 168 [1]
Settings | first compound 0.02 µg/mL | first compound 0.04 µg/mL | first compound 0.08 µg/mL
partner 0.125 µg/mL | 0.695 | 0.659 | 0.52
partner 0.25 µg/mL | – | 0.644 | 0.448
partner 0.5 µg/mL | – | 0.412 | 0.262

Settings | Bliss interaction score
B. subtilis 168 [2] | 0.0804
S. aureus DSM 20231 | 0.108
S. aureus Newman | 0.028
S. pneumoniae D39V | -0.108

C[C@@H]1O[C@@H]1P(=O)(O)O [Fosfomycin] + CO[C@@H]1[C@@H](OC(N)=O)[C@@H](O)[C@H](Oc2ccc3c(O)c(NC(=O)c4ccc(O)c(CC=C(C)C)c4)c(=O)oc3c2C)OC1(C)C [Novobiocin]
fitness, B. subtilis 168 [1]
Settings | first compound 1.562 µg/mL | first compound 3.124 µg/mL | first compound 6.248 µg/mL
partner 0.0125 µg/mL | 0.712 | 0.609 | 0.44
partner 0.025 µg/mL | 0.658 | 0.586 | 0.408
partner 0.05 µg/mL | 0.792 | 0.69 | 0.47

fitness, B. subtilis 168 [1], one replicate
Settings | partner 0.1 µg/mL | partner 0.125 µg/mL | partner 0.2 µg/mL | partner 0.25 µg/mL | partner 0.5 µg/mL
first compound 1.562 µg/mL | 0.746 | 0.785 | 0.793 | 0.7 | 0.12
first compound 3.124 µg/mL | 0.698 | 0.782 | 0.691 | 0.637 | 0.0455
first compound 6.248 µg/mL | 0.531 | 0.551 | 0.507 | 0.36 | 0.0252

Settings | Bliss interaction score
B. subtilis 168 [2] | -0.0536
S. aureus DSM 20231 | 0.1
S. aureus Newman | 0.0635
S. pneumoniae D39V | -0.102

Cc1ncc([N+](=O)[O-])n1CCO [Metronidazole] + CO[C@@H]1[C@@H](OC(N)=O)[C@@H](O)[C@H](Oc2ccc3c(O)c(NC(=O)c4ccc(O)c(CC=C(C)C)c4)c(=O)oc3c2C)OC1(C)C [Novobiocin]
fitness, B. subtilis 168 [1]
Settings | first compound 0.625 µg/mL | first compound 1.25 µg/mL | first compound 2.5 µg/mL
partner 0.0125 µg/mL | 0.969 | 0.954 | 0.968
partner 0.025 µg/mL | 0.998 | 0.977 | 0.986
partner 0.05 µg/mL | 0.969 | 0.977 | 0.98

fitness, B. subtilis 168 [1], one replicate
Settings | first compound 0.625 µg/mL | first compound 1.25 µg/mL | first compound 2.5 µg/mL
partner 0.125 µg/mL | ≥ 1 | 0.958 | 0.915
partner 0.25 µg/mL | 0.923 | 0.916 | 0.908
partner 0.5 µg/mL | 0.584 | 0.633 | 0.552

Settings | Bliss interaction score
B. subtilis 168 [2] | 0.072
S. aureus DSM 20231 | 0.0355
S. aureus Newman | 0.05
S. pneumoniae D39V | 0.126

CN(C)c1cc(NC(=O)CNC(C)(C)C)c(O)c2c1C[C@H]1C[C@H]3[C@H](N(C)C)C(O)=C(C(N)=O)C(=O)[C@@]3(O)C(O)=C1C2=O [Tigecycline] + COc1cc(Cc2cnc(N)nc2N)cc(OC)c1OC [Trimethoprim]
fitness, B. subtilis 168 [1], one replicate
Settings | partner 0.1 µg/mL | partner 0.125 µg/mL | partner 0.2 µg/mL | partner 0.25 µg/mL | partner 0.4 µg/mL | partner 0.5 µg/mL | partner 1 µg/mL | partner 2 µg/mL
first compound 0.039 µg/mL | 0.879 | 0.739 | 0.77 | – | 0.58 | – | 0.505 | 0.438
first compound 0.078 µg/mL | 0.896 | 0.727 | 0.754 | – | 0.577 | – | 0.455 | 0.408
first compound 0.125 µg/mL | – | 0.898 | – | 0.749 | – | 0.694 | – | –
first compound 0.156 µg/mL | 0.883 | 0.758 | 0.814 | – | 0.546 | – | 0.402 | 0.357
first compound 0.25 µg/mL | – | 0.798 | – | 0.546 | – | 0.55 | – | –
first compound 0.5 µg/mL | – | 0.87 | – | 0.695 | – | 0.633 | – | –

fitness, B. subtilis 168 [1]
Settings | first compound 0.039 µg/mL | first compound 0.078 µg/mL | first compound 0.156 µg/mL
partner 0.25 µg/mL | 0.657 | 0.653 | 0.677
partner 0.5 µg/mL | 0.567 | 0.532 | 0.529

Settings | Bliss interaction score
B. subtilis 168 [2] | 0.121
S. aureus DSM 20231 | -0.0664
S. aureus Newman | -0.0503
S. pneumoniae D39V | -0.119
